Results reported in patent US4151268A, “Barbituric acid antigens and antibodies specific therefor” (Hoffmann-La Roche Inc., priority 1977, dated 1979).

How the values were obtained:
[1] = system: barbituric acid specific antibody (antisera obtained in Example 2); experiment: Comparison runs: recognition of other barbituric acid derivatives and related compounds by the antibody; details: at similar concentrations
[2] = system: barbituric acid specific antibody (antisera obtained in Example 2); experiment: Radioimmunoassay: competitive inhibition of binding of [C14] pentobarbital to antiserum (ammonium sulfate precipitation); details: 4° C., overnight

For `CN1C(=O)NC(=O)C(C)(C2=CCCCC2)C1=O` (centres unmarked) [hexobarbital], the “recognition / binding by the antibody” value [1] was “failed to bind”.
For `CCCC(C)C1(CC)C(=O)NC(=O)NC1=O` (centres unmarked) [pentobarbital], the “Percent inhibition of binding of pentobarbital-C^14” value (“Percent inhibition” for short) ([2]; 1 nanogram non-radioactive pentobarbital added) was 10%, the “Percent inhibition” value ([2]; 5 nanograms non-radioactive pentobarbital added, sample volume 10 μl) was 20% and the “Percent inhibition” value ([2]; 10 nanograms non-radioactive pentobarbital added) was 28%. The “Percent inhibition” value ([2]; 20 nanograms non-radioactive pentobarbital added) was 43%, the “Percent inhibition” value ([2]; 30 nanograms non-radioactive pentobarbital added) was 52% and the “Percent inhibition” value ([2]; 40 nanograms non-radioactive pentobarbital added) was 63%. The “recognition / binding by the antibody” value [1] was “capable of recognizing”.
In the case of `CCC1(CC)C(=O)NC(=O)NC1=O` [barbital], the “recognition / binding by the antibody” value [1] is reported as “capable of recognizing”.
In the case of `CCC1(c2ccccc2)C(=O)NC(=O)NC1=O` [phenobarbital], the “recognition / binding by the antibody” value [1] is reported as “capable of recognizing”.
In the case of `CCCC(C)C1(CC)C(=O)NC(=S)NC1=O` (centres unmarked) [thiopental], the “recognition / binding by the antibody” value [1] is reported as “failed to bind”.
